In patent US10647675B2 (priority 2015, dated 2020):
Values after ≈ are worked out from the molar mass of the structure shown.

Key:
[1] = system: Trichophyton mentagrophytes SM-110; experiment: Antifungal activity evaluation test: minimum inhibitory concentration (MIC), broth dilution by reference to CLSI M38-A2; type: cell-based; conditions: SM110, read-out: MIC (T. menta.)
Procedure, shortened: (§1)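 Broth microdilution after CLSI M38-A2: 2-fold DMSO dilution series in MOPS-buffered RPMI 1640 pH 7.0, inoculum 2×10^3 cells/mL final. Incubated 35° C for 4 days; MIC (μg/mL) is lowest concentration giving visually ≥80% growth inhibition versus growth control.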

[2] = system: Trichophyton rubrum KD-1130; experiment: as above; type: cell-based; conditions: KD1130, read-out: MIC (T. rubrum)
Procedure, shortened: as §1

Structure (SMILES)	MIC [1]	MIC [2]
COc1ccccc1-c1cccnc1Oc1ccc(C)nc1 [I-68]	1.56 to 6.25 µg/mL (≈ 5.34 to 21.4 µM)	1.56 to 6.25 µg/mL (≈ 5.34 to 21.4 µM)
COc1cc(F)ccc1-c1cccnc1Oc1cnc(I)nc1 [I-191, 5-{[3-(4-fluoro-2-methoxyphenyl)pyridin-2-yl]oxy}-2-iodopyrimidine]	0.2 to 0.78 µg/mL (≈ 0.473 to 1.84 µM)	0.2 to 0.78 µg/mL (≈ 0.473 to 1.84 µM)
COc1ccncc1-c1cccnc1Oc1ccc(CC(F)(F)F)cc1 [I-249, 4′-methoxy-2-[4-(2,2,2-trifluoroethyl)phenoxy]-3,3′-bipyridine]	0.2 to 0.78 µg/mL (≈ 0.555 to 2.16 µM)	0.2 to 0.78 µg/mL (≈ 0.555 to 2.16 µM)
COc1ccncc1-c1cccnc1Oc1ccc(C#C[Si](C)(C)C)cc1 [I-259, 4′-methoxy-2-{4-[(trimethylsilyl)ethynyl]phenoxy}-3,3′-bipyridine]	0.2 to 0.78 µg/mL (≈ 0.534 to 2.08 µM)	0.2 to 0.78 µg/mL (≈ 0.534 to 2.08 µM)
COc1ccncc1-c1cccnc1Oc1ccc(C(C)(F)F)cc1 [I-297, 2-[4-(1,1-difluoroethyl)-phenoxy]-4′-methoxy-3,3′-bipyridine]	≤ 0.1 µg/mL	≤ 0.1 µg/mL
COc1ccncc1-c1cc(Cl)cnc1Oc1ccc(C(F)(F)F)cc1 [I-217, 5-chloro-4′-methoxy-2-[4-(trifluoromethyl)phenoxy]-3,3′-bipyridine]	1.56 to 6.25 µg/mL (≈ 4.1 to 16.4 µM)	1.56 to 6.25 µg/mL (≈ 4.1 to 16.4 µM)
COc1cc(F)ccc1-c1cccnc1Oc1ccc(C(F)(F)F)nc1 [I-12, 3-(4-fluoro-2-methoxyphenyl)-2-{[6-(trifluoromethyl)pyridin-3-yl]oxy}pyridine]	≤ 0.1 µg/mL	≤ 0.1 µg/mL
Cc1ccncc1-c1cccnc1Oc1ccc(C(C)(F)F)c(F)c1 [I-305, 2-[4-(1,1-difluoroethyl)-3-fluorophenoxy]-4′-methyl-3,3′-bipyridine]	≤ 0.1 µg/mL	≤ 0.1 µg/mL
Cc1nn(C)c(C)c1-c1cccnc1Oc1ccc(C(F)(F)F)cc1 [I-341, 2-[4-(trifluoromethyl)phenoxy]-3-(1,3,5-trimethyl-1H-pyrazol-4-yl)pyridine]	0.2 to 0.78 µg/mL (≈ 0.576 to 2.25 µM)	≤ 0.1 µg/mL
COc1cc(F)ccc1-c1cccnc1Oc1cnc(N(C)CC#N)nc1 [I-189]	0.2 to 0.78 µg/mL (≈ 0.547 to 2.13 µM)	0.2 to 0.78 µg/mL (≈ 0.547 to 2.13 µM)
FC(F)(F)c1ccc(Oc2ncccc2-c2cccn3ccnc23)cc1 [I-229, 8-{2-[4-(trifluoromethyl)phenoxy]pyridin-3-yl}imidazo[1,2-a]pyridine]	0.2 to 0.78 µg/mL (≈ 0.563 to 2.2 µM)	1.56 to 6.25 µg/mL (≈ 4.39 to 17.6 µM)
COc1cccc(-c2cccnc2Oc2ccc(Cl)cc2)c1 [I-200, 2-(4-chlorophenoxy)-3-(3-methoxyphenyl)pyridine]	≤ 0.1 µg/mL	≤ 0.1 µg/mL
CCc1ccc(Oc2ncccc2-c2cncc(C(F)F)c2OC)cc1 [I-288, 5′-(difluoromethyl)-2-(4-ethylphenoxy)-4′-methoxy-3,3′-bipyridine]	≤ 0.1 µg/mL	≤ 0.1 µg/mL
COc1ccc(-c2cccnc2Oc2ccc(C(C)(F)F)nc2)c(OC)n1 [I-94, 2′-{[6-(1,1-difluoroethyl)pyridin-3-yl]oxy}-2,6-dimethoxy-3,3′-bipyridine]	≤ 0.1 µg/mL	≤ 0.1 µg/mL
COc1cc(F)ccc1-c1cccnc1Oc1cnc(C(F)(F)F)nc1 [I-179, 5-{[3-(4-fluoro-2-methoxyphenyl)pyridin-2-yl]oxy}-2-(trifluoromethyl)pyrimidine]	≤ 0.1 µg/mL	≤ 0.1 µg/mL
COc1ccccc1-c1cccnc1Cc1ccc(C(F)(F)F)cc1 [I-439, 3-(2-methoxyphenyl)-2-[4-(trifluoromethyl)benzyl]pyridine]	0.2 to 0.78 µg/mL (≈ 0.582 to 2.27 µM)	0.2 to 0.78 µg/mL (≈ 0.582 to 2.27 µM)
Cc1ccncc1-c1cccnc1Oc1ccc(-n2cccn2)cc1 [I-433]	≤ 0.1 µg/mL	≤ 0.1 µg/mL
CC(F)(F)c1ccc(Oc2ncncc2-c2cccc3c2OCC3)cn1 [I-335, 4-{[6-(1,1-difluoroethyl)pyridin-3-yl]oxy}-5-(2,3-dihydrobenzofuran-7-yl)pyrimidine]	≤ 0.1 µg/mL	≤ 0.1 µg/mL
COc1ncc(F)cc1-c1cccnc1Oc1ccc(C(F)(F)F)nc1 [I-32, 5-fluoro-2-methoxy-2′-{[6-(trifluoromethyl)pyridin-3-yl]oxy}-3,3′-bipyridine]	0.2 to 0.78 µg/mL (≈ 0.548 to 2.14 µM)	≤ 0.1 µg/mL
CNCC(F)(F)c1ccc(Oc2ncccc2-c2ccccc2OC)cn1 [I-146, 2,2-difluoro-2-(5-{[3-(2-methoxyphenyl)pyridin-2-yl]oxy}-pyridin-2-yl)-N-methylethanamine]	0.2 to 0.78 µg/mL (≈ 0.539 to 2.1 µM)	1.56 to 6.25 µg/mL (≈ 4.2 to 16.8 µM)
COc1ccncc1-c1cccnc1Oc1ccc(C(C)C)cc1 [I-255, 2-(4-isopropylphenoxy)-4′-methoxy-3,3′-bipyridine]	≤ 0.1 µg/mL	≤ 0.1 µg/mL
COc1ncccc1-c1cccnc1Oc1ccc(C(F)F)cc1 [I-443]	≤ 0.1 µg/mL	≤ 0.1 µg/mL
CCc1ccc(Oc2ncccc2-c2cnccc2OC)cc1F [I-392, 2-(4-ethyl-3-fluorophenoxy)-4′-methoxy-3,3′-bipyridine]	≤ 0.1 µg/mL	≤ 0.1 µg/mL
